Holding throughout (assay type): cell-based
One assay deals with 1205Lu C×43 (C). In words: Number of viable cells after treatment (FIG. 11). The note with it: normoxia; tirapazamine at 28.5 μM. Here is the method:
(§1) The cell lines shown in FIG. 11 include: 1205Lu plasmid (P), 1205Lu […]), 1205Lu-[…] (T). […] The cells were treated with non-thermal plasma (NTP), tirapazamine at 28.5 μM (TPZ), or the combination (NTP/TPZ). […] (T) but not for 1205Lu plasmid (P). […] Under […], all treatments (NTP, TPZ and NTP/TPZ) cause a decrease in cell number from the original number of cells (6×10^6) to approximately (3×10^6) for all melanoma cell lines. Under hypoxia, TPZ causes a decrease in cell number from the original number of cells (6×10^6) to approximately (1.2-0.6×10^5). Under hypoxia, NTP/TPZ causes a decrease from the original number of cells (6×10^6) to approximately (0.1-0.03×10^5). […] In addition, the target area of the NTP torch dramatically increases under these conditions. The ROS generated by NTP and tirapazamine induces the bystander effect and promotes the spreading of cell death signals well beyond the area of the plasma treatment. Upon treatment for 24 hours with NTP+/- tirapazamine at normal conditions (normoxia) or hypoxic conditions (hypoxia), the combination of NTP+/- tirapazamine enhances cell death under hypoxia. Furthermore, the area in which the plasma torch affects the cells increases only in the cells overexpressing the functional gap junctions.

The subject of a further assay is 1205Lu plasmid (P). In words: Number of viable cells after treatment (FIG. 11). The note with it: normoxia; tirapazamine at 28.5 μM. How it is done:
as §1

The next assay relates to 1205Lu-T154A (T). In words: Number of viable cells after treatment (FIG. 11). To be noted: normoxia; tirapazamine at 28.5 μM. Here is the method: as §1
A further assay relates to 1205Lu melanoma cells. In words: IC50 of tirapazamine for melanoma cells. To be noted: Homo sapiens.
The next assay concerns 1205Lu cells. In words: Photographic assessment of cell death (FIGS. 12 and 13).
In a further assay the test system is HIF1α. In words: HIF1α expression under hypoxia (FIG. 14). The text has this:
HIF1α is a transcription factor that enhances transcription of many metastasis related genes. The expression of HIF1α usually increases under hypoxic conditions.

SMILES strings stand for the structures.

Source text for 1205Lu cells: The broken lines shown in FIGS. 12 and 13 demarcate live cells from dead cells. The portions shown with asterisks represent the dead cells.

Take `Nc1n[n+]([O-])c2ccccc2[n+]1[O-]` [TPZ, 3-Aminobenzo[e][1,2,4]triazine 1,4-dioxide]: the “change in viable cells” value with 1205Lu C×43 (C), in the assay with 1205Lu plasmid (P) and with 1205Lu-T154A (T) was “decrease in viable cells” in each case. The IC50 in the assay on 1205Lu melanoma cells was found to be 28.5 µM. In the assay on 1205Lu cells (hypoxia), the “cell toxicity (FIG. 13)” value was “induces cell toxicity only under hypoxic conditions”. Further, the “effect on cells (FIG. 12)” value with 1205Lu cells (normal oxygen conditions) was “no effect”. Moreover, the “expression of HIF1α compared with control” value is recorded as “decrease” in the assay with HIF1α (cell line C), “increase” in the assay on HIF1α (cell line P) and “increase” in the assay with HIF1α (cell line T).
